Assay results: patent publication US10246498B2, “Genetically encoded histone reporter allele constructs” (THE JOHNS HOPKINS UNIVERSITY, priority 2014, dated 2019)
“Also recorded” adds a separate entry of the source.

Tests used:
[1] = test system: Kmt2d+/βGeo mouse model of Kabuki syndrome; experiment: Morris water maze; assay type: in vivo; details: 10 mg/kg/day
From the text: Kmt2d^+/βGeo mice, also named Mll2Gt^(RRt024)Byg, were acquired from Bay Genomics (University of California). All experimental mice were on a mixed C57BL/6J and 129/SvEv background. Expected Mendelian ratios were observed when heterozygous animals were bred to wild-type. In heterozygous crosses, however, there was uniform embryonic lethality of homozygotes by ED12, the earliest developmental stage assayed. For treatment with AR-42, mice were orally gavaged daily with drug (Selleck Chemicals, Houston, Tex.) solubilized in vehicle (0.5% methylcellulose, 0.1% Tween-80, water) or with vehicle alone. Drug delivery information was kindly provided by Drs. […] For quantification of DCX positive cells, doses of 0, 5, 10 and 25 mg/kg/day were used. […] Maxillary protrusion was evaluated by ten investigators blinded to genotype and they were asked to rate maxillary protrusion on radiographs as either large (2) or small (1). […]
Mice were placed in a 1.1 meter diameter tank filled with room temperature water dyed with non-toxic white paint. […] Latency to reach the platform was measured during each trial. […] Average number of crossings of the platform's previous location was recorded. […] For all training and probe testing, data was recorded both manually and electronically with ANY-maze software (San Diego Instruments, San Diego, Calif.) when applicable. […]

[2] = test system: DCX positive cells in the GCL; experiment: Doublecortin (DCX) expression in the GCL (neurogenesis) after oral AR-42; assay type: in vivo, mouse
From the text: Kmt2d^+/βGeo mice, also named Mll2Gt^(RRt024)Byg, were acquired from Bay Genomics (University of California). All experimental mice were on a mixed C57BL/6J and 129/SvEv background. Expected Mendelian ratios were observed when heterozygous animals were bred to wild-type. In heterozygous crosses, however, there was uniform embryonic lethality of homozygotes by ED12, the earliest developmental stage assayed. For treatment with AR-42, mice were orally gavaged daily with drug (Selleck Chemicals, Houston, Tex.) solubilized in vehicle (0.5% methylcellulose, 0.1% Tween-80, water) or with vehicle alone. Drug delivery information was kindly provided by Drs. Chen and Kulp from Ohio State University (Huang et al. (2011) Mol. Pharmacol. 79:197-20619). Drug was administered for 14 days and mice were sacrificed on day 15. Morris water maze testing was initiated at day 7 and a dose of 10 mg/kg/day was used for these studies. For quantification of DCX positive cells, doses of 0, 5, 10 and 25 mg/kg/day were used. Genotyping was performed using primers B-GeoF-([…]; SEQ ID NO: 1) and B-GeoR-([…]; SEQ ID NO: 2) that are specific for the targeted allele and TcrdF-([…]; SEQ ID NO: 3) and TcrdR-([…]; SEQ ID NO: 4) that control for sufficient DNA concentration. Real-time PCR using the same primers allows discrimination between the heterozygous and homozygous state for the targeted allele. Maxillary protrusion was evaluated by ten investigators blinded to genotype and they were asked to rate maxillary protrusion on radiographs as either large (2) or small (1). […] All experiments were performed using mouse protocols approved by the Animal Care and Committee of Johns Hopkins University School of Medicine. The mouse protocols used for this study are in accordance with the guidelines used by the NIH for mouse care and handling.
Every 6th brain section was selected and then blocked with 5% Bovine Serum Albumin (BSA) at room temperature followed by incubation with primary antibodies overnight at 4° C. Secondary antibodies were then applied for 1 hour at room temperature, after which sections were mounted onto microscope slides with Vectamount with DAPI (Vector Laboratories, Burlingame, Calif.). Primary antibodies included Doublecortin (DCX) (SC-8066, Santa Cruz Biotechnology, Dallas, Tex., 1:200 goat), trimethylated H3K4 (9727L, Cell Signaling Technology, Beverly, Mass., 1:500 rabbit), and Kmt2d H-300 (SC-292359, Santa Cruz Biotechnology, Dallas, Tex., 1:500 rabbit). Non-specific binding was not observed when sections were sequentially exposed to serum (or IgG when appropriate) from the same species as the primary antibody for each experiment (i.e. rabbit for KMT2D and H3K4me3 and goat for doublecortin), followed by the secondary antibody used for KMT2D and H3K4me3 (anti-rabbit) or doublecortin (anti-goat, FIG. 29).
The area of both the GCL and DCX+ cells was measured using the NS elements 2.0 software (Nikon, Tokyo, JPN). Normalized DCX area was calculated by measuring the DCX+ area of the GCL and setting the baseline (Kmt2d^+/+) fraction to 1. A Student t-test with significance value set at P<0.05 was used for comparison of DCX+ area referenced to GCL area between genotypes and treatment arms.

`CC(C)[C@H](C(=O)Nc1ccc(C(=O)NO)cc1)c1ccccc1` [AR-42] was tested, and the “frequency of platform crossing, probe trial” value [1] was “improved performance; also recorded: normalized”, the “escape latency during training, with versus without drug” value ([1]; Kmt2d+/βGeo animals) was “No significant difference” and the DCX expression ([2]; 10 mg/kg/day, older (5-6 months) Kmt2d+/βGeo mice) was “improved”. For the same compound, the DCX expression ([2]; 25 mg/kg/day, Kmt2d+/+ animals) was “reduced DCX expression”, the DCX expression ([2]; 25 mg/kg/day, Kmt2d+/βGeo mice) was “did not improve DCX expression” and the “DCX expression in the GCL” value ([2]; 25 mg/kg/day, young (1-2 month) and old (5-6 month) mice, both genotypes) was “decreased DCX expression”. For the same compound, the “neurogenesis (normalized DCX expression)” value ([2]; 5 and 10 mg/kg/day, 1-2 month old Kmt2d+/βGeo mice) was “dose-dependent increase in neurogenesis” and the DCX expression ([2]; 5 and 10 mg/kg/day, Kmt2d+/+ or Kmt2d+/βGeo, both age groups) was “preservation or restoration of DCX expression”.
